Data published in patent US8044071B2, “Method for reducing side effects of CB2 receptor agonist therapy using a combination of a selective CB2 receptor agonist and a selective CB1 receptor antagonist” (Abbott Laboratories, priority 2007, dated 2011).

Tested on: skin incision model of postoperative pain
Experiment: Skin incision model of postoperative pain (tactile allodynia, von Frey)
Type: in vivo
Details: rat, rimonabant 30 μmol/kg i.p., vehicle 15 min later
Excerpt: Adult male Sprague-Dawley rats (250-300 g body weight, Charles River Laboratories, Portage, Mich.) were used. Animal handling and experimental protocols were approved by the Institutional Animal Care and Use Committee (IACUC) at Abbott Laboratories. For all surgical procedures, animals were maintained under halothane anesthesia (4% to induce, 2% to maintain), and the incision sites were sterilized using a 10% povidone-iodine solution prior to and after surgeries.
A skin incision model of postoperative pain was produced using the procedures described in Brennan et al., 1996, Pain, 64, 493. All rats were anesthetized with isoflurane delivered via a nose cone. Right hind paw incision was performed following sterilization procedures. The plantar aspect of the […] hind paw was placed through a hole in a sterile plastic drape. A 1-cm longitudinal incision was made through the skin and fascia of the plantar aspect of the hind paw, starting 0.5 cm from the proximal edge of the heel and extending towards the toes, the plantar muscle was elevated and incised longitudinally leaving the muscle origin and insertion points intact. The skin was then closed with two mattress sutures (5-0 nylon). After surgery, animals were then allowed to recover for 2 hours, at which time tactile allodynia was assessed as described below. To evaluate the anti-nociceptive effects, animals were i.p. administered vehicle or test compound 90 minutes following skin incision and tactile allodynia was typically assessed 30 minutes after compound administration.
Tactile allodynia was measured using calibrated von Frey filaments (Stoelting, Wood Dale, Ill.) as described in Chaplan, S. R., F. W. Bach, J. W. Porgrel, J. M. Chung and T. L. Yaksh, 1994, Quantitative assessment of tactile allodynia in the rat paw, J. Neurosci. Methods, 53, 55. Rats were placed into inverted individual plastic cage (20×12.5×20 cm) on top of a suspended wire mesh grid, and acclimated to the test chambers for 20 minutes. The von Frey filaments were applied perpendicularly from underneath the cage through openings in the wire mesh floor directly to an area within 1-3 mm (immediately adjacent) of the incision, and then held in this position for approximately 8 seconds with enough force to cause a slight bend in the filament. Positive responses included an abrupt withdrawal of the hind paw from the stimulus, or flinching behavior immediately following removal of the stimulus. A 50% withdrawal threshold was determined using an up-down procedure as described in Dixon, W. J., 1980, Efficient analysis of experimental observations, Ann. Rev. Pharmacol. Toxicol., 20, 441. The effect on paw withdrawal latency of test compounds compared to vehicle control represents the ability of the test compound to reduce allodynia. An increase in the paw withdrawal latency represents an anti-allodynic effect (i.e., a decrease in pain).
Using the skin incisional model of postoperative pain, the effects of compound A, CB2 agonist (Z)—N-(5-tert-butyl-3-butylthiazol-2(3H)-ylidene)-5-chloro-2-methoxybenzamide, on allodynia was assessed two hours after surgery.
Using the skin incisional model of postoperative pain, the effects of CB2 agonist A were evaluated after the administration of vehicle or the CB1 antagonist rimonabant. This effect was compared with the administration of vehicle after the administration of vehicle or the CB1 antagonist rimonabant. A first dose, consisting of CB1 antagonist rimonabant (30 μmol/kg i.p.) or a vehicle (5% DMSO/PEG), was administered 15 minutes before a second dose, consisting of administration of CB2 agonist A (30 μmol/kg i.p.) or vehicle. Allodynia testing was conducted 30 minutes after administration of the second dose, either CB2 agonist A or vehicle.

Cc1c(C(=O)NN2CCCCC2)nn(-c2ccc(Cl)cc2Cl)c1-c1ccc(Cl)cc1 [rimonabant, 5-(4-chlorophenyl)-1-(2,4-dichlorophenyl)-4-methyl-N-(piperidin-1-yl)-1H-pyrazole-3-carboxamide, reference compound]
tactile allodynia, rimonabant followed by vehicle: did not ameliorate the tactile allodynia
